Experimental findings from PMC8035258 (ChemMedChem, 2021) are described below.

Mitochondrial respiratory complex II, sequence (Q8K2B3 43-664): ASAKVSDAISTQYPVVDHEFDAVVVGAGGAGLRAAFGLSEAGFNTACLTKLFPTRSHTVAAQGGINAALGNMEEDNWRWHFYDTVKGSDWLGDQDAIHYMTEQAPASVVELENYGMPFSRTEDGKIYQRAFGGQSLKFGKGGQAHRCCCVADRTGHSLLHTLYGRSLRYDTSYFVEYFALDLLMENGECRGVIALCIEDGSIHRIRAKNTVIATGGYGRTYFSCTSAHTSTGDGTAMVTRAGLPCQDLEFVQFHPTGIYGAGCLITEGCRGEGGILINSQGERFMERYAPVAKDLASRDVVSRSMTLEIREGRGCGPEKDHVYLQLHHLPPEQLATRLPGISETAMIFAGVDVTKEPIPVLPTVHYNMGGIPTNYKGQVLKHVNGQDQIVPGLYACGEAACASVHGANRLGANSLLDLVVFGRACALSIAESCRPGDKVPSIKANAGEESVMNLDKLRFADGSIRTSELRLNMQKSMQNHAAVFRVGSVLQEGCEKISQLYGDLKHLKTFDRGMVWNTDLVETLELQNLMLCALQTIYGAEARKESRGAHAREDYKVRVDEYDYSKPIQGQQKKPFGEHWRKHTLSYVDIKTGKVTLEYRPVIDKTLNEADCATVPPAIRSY
Mitochondrial respiratory complex II, sequence (Q9CQA3 31-282): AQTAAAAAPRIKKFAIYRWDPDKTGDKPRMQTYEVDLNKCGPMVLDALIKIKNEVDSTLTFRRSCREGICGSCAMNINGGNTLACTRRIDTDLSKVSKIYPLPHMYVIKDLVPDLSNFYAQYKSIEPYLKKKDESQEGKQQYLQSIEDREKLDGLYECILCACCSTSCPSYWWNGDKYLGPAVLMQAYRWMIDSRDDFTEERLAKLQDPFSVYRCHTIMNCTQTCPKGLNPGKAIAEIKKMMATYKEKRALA
Mitochondrial respiratory complex II, sequence (Q9CZB0 30-169): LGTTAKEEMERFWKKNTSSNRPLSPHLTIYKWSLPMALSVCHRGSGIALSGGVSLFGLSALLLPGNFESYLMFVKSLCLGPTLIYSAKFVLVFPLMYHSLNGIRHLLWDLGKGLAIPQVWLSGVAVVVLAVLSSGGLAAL
Mitochondrial respiratory complex II, sequence (Q9CXV1 57-159): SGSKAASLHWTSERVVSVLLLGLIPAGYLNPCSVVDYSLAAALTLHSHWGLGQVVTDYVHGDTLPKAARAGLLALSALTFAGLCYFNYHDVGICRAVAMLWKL

One assay concerns the target Mitochondrial respiratory complex II (Mus musculus, UniProt Q8K2B3+Q9CQA3+Q9CXV1+Q9CZB0). Put plainly: Complex II inhibition assay. In kind it is biochemical. Particulars: 100 μM; mouse liver mitochondria; mean ±SD of n = 4.
With `O=S1(=O)N=C(NCc2ccc(Cl)cc2)Nc2ccccc21` [Compound 16d, 3-((4-Chlorobenzyl)amino)-4H-benzo[e][1,2,4]thiadiazine 1,1-dioxide], the “% Inhibition CII (100 μM)” value is “inactive”.

Still in this assay, the particulars now being: read-out: % Inhibition CII (100 μM), 100 μM; mouse liver mitochondria; mean ±SD of n = 4.
For the compound `O=C1Nc2ccc(F)cc2S(=O)(=O)N1` [Compound 11a, 7-Fluoro-3-oxo-3,4-dihydro-2H-1,2,4-benzothiadiazine 1,1-dioxide], the inhibition at 100 µM came to 6 ± 1.5%.

Regarding `O=C1Nc2ccc(Br)cc2S(=O)(=O)N1` [Compound 11c, 7-Bromo-3-oxo-3,4-dihydro-2H-1,2,4-benzothiadiazine1,1-dioxide], the inhibition at 100 µM stood at 0%.

For the compound `O=C1Nc2ccccc2S(=O)(=O)N1` [Compound 11d, 2H-benzo[e][1,2,4]thiadiazin-3(4H)-one 1,1-dioxide], the inhibition at 100 µM worked out at 0%.

As to `O=S1(=O)NC(=S)Nc2ccc(F)cc21` [Compound 12a, 7-Fluoro-3-thioxo-3,4-dihydro-2H-1,2,4-benzothiadiazine 1,1-dioxide], the inhibition at 100 µM worked out at 0%.

For the compound `O=S1(=O)NC(=S)Nc2ccccc21` [Compound 12d, 2H-benzo[e][1,2,4]thiadiazine-3(4H)-thione 1,1-dioxide], the inhibition at 100 µM is 2 ± 5.8%.

On to `CSC1=NS(=O)(=O)c2cc(F)ccc2N1` [Compound 13a, 7-Fluoro-3-methylsulfanyl-4H-1,2,4-benzothiadiazine 1,1-dioxide], for which the inhibition at 100 µM came out at 0%.

In the case of `CSC1=NS(=O)(=O)c2ccc(Cl)cc2N1` [Compound 13b, 6-Chloro-3-methylsulfanyl-4H-1,2,4-benzothiadiazine 1,1-dioxide], the inhibition at 100 µM amounted to 24 ± 0.7%.

Regarding `CSC1=NS(=O)(=O)c2cc(Br)ccc2N1` [Compound 13c, 7-Bromo-3-methylsulfanyl-4H-1,2,4-benzothiadiazine 1,1-dioxide], the inhibition at 100 µM was found to be 10 ± 2.7%.

Take `CSC1=NS(=O)(=O)c2ccccc2N1` [Compound 13d, 3-(Methylthio)-4H-benzo[e][1,2,4]thiadiazine 1,1-dioxide]: the inhibition at 100 µM is 4 ± 5.5%.

Consider `CC(C)NC1=NS(=O)(=O)c2cc(F)ccc2N1` [Compound 14a, 7-Fluoro-3-isopropylamino-4H-1,2,4-benzothiadiazine 1,1-dioxide], for which the inhibition at 100 µM was 4 ± 6.9%.

Turning to `CC(C)NC1=NS(=O)(=O)c2ccc(Cl)cc2N1` [Compound 14b, 6-Chloro-3-isopropylamino-4H-1,2,4-benzothiadiazine 1,1-dioxide], the inhibition at 100 µM was found to be 0%.

With `CC(C)NC1=NS(=O)(=O)c2cc(Br)ccc2N1` [Compound 14c, 7-Bromo-3-isopropylamino-4H-1,2,4-benzothiadiazine 1,1-dioxide], the inhibition at 100 µM came to 0%.

As for `CC(C)NC1=NS(=O)(=O)c2ccccc2N1` [Compound 14d, 3-(Isopropylamino)-4H-benzo[e][1,2,4]thiadiazine 1,1-dioxide], the inhibition at 100 µM came out at 0%.

On to `CC(C)C(C)NC1=NS(=O)(=O)c2cc(F)ccc2N1` (stereo not shown) [Compound 15a, 7-Fluoro-3-((3-methylbutan-2-yl)amino)-4H-benzo[e][1,2,4]thiadiazine 1,1-dioxide], for which the inhibition at 100 µM came out at 5 ± 4.5%.

In the case of `CC(C)C(C)NC1=NS(=O)(=O)c2ccc(Cl)cc2N1` (stereo not shown) [Compound 15b, 6-Chloro-3-((3-methylbutan-2-yl)amino)-4H-benzo[e][1,2,4]thiadiazine 1,1-dioxide], the inhibition at 100 µM worked out at 0%.

As for `CC(C)C(C)NC1=NS(=O)(=O)c2ccccc2N1` (stereo not shown) [Compound 15d, 3-((3-Methylbutan-2-yl)amino)-4H-benzo[e][1,2,4]thiadiazine 1,1-dioxide], the inhibition at 100 µM amounted to 0%.

In the case of `O=S1(=O)N=C(NCc2ccc(Cl)cc2)Nc2ccccc21` [Compound 16d, 3-((4-Chlorobenzyl)amino)-4H-benzo[e][1,2,4]thiadiazine 1,1-dioxide], the inhibition at 100 µM turned out to be 0%.

Regarding `O=S1(=O)N=C(NCc2ccc(F)cc2)Nc2ccc(F)cc21` [Compound 17a, 7-Fluoro-3-((4-fluorobenzyl)amino)-4H-benzo[e][1,2,4]thiadiazine 1,1-dioxide], the inhibition at 100 µM was determined as 1 ± 6.2%.

With `O=S1(=O)N=C(NCc2ccc(F)cc2)Nc2cc(Cl)ccc21` [Compound 17b, 6-Chloro-3-((4-fluorobenzyl)amino)-4H-benzo[e][1,2,4]thiadiazine 1,1-dioxide], the inhibition at 100 µM is 0%.

`O=S1(=O)N=C(NCc2ccc(F)cc2)Nc2ccc(Br)cc21` [Compound 17c, 7-Bromo-3-((4-fluorobenzyl)amino)-4H-benzo[e][1,2,4]thiadiazine 1,1-dioxide]: the inhibition at 100 µM amounted to 35 ± 9.9%.

On to `O=S1(=O)N=C(NCc2ccc(F)cc2)Nc2ccccc21` [Compound 17d, 3-((4-Fluorobenzyl)amino)-4H-benzo[e][1,2,4]thiadiazine 1,1-dioxide], for which the inhibition at 100 µM is 7 ± 9.9%.

As for `O=S1(=O)N=C(NCCc2ccccc2)Nc2ccc(F)cc21` [Compound 18a, 7-Fluoro-3-(phenethylamino)-4H-benzo[e][1,2,4]thiadiazine 1,1-dioxide], the inhibition at 100 µM worked out at 4 ± 15.5%.

As to `O=S1(=O)N=C(NCCc2ccccc2)Nc2cc(Cl)ccc21` [Compound 18b, 6-Chloro-3-(phenethylamino)-4H-benzo[e][1,2,4]thiadiazine 1,1-dioxide], the inhibition at 100 µM was found to be 19 ± 22.6%.

As for `CCNC1=NS(=O)(=O)c2cc(F)ccc2N1` [Compound 19a, 3-(Ethylamino)-7-fluoro-4H-benzo[e][1,2,4]thiadiazine 1,1-dioxide], the inhibition at 100 µM is 0%.

For `CCNC1=NS(=O)(=O)c2ccc(Cl)cc2N1` [Compound 19b, 6-Chloro-3-(ethylamino)-4H-benzo[e][1,2,4]thiadiazine 1,1-dioxide], the inhibition at 100 µM stood at 0%.

On to `CCNC1=NS(=O)(=O)c2cc(Br)ccc2N1` [Compound 19c, 7-Bromo-3-(ethylamino)-4H-benzo[e][1,2,4]thiadiazine 1,1-dioxide], for which the inhibition at 100 µM was 11 ± 6.9%.

On to `CCNC1=NS(=O)(=O)c2ccccc2N1` [Compound 19d, 3-(Ethylamino)-4H-benzo[e][1,2,4]thiadiazine 1,1-dioxide], for which the inhibition at 100 µM stood at 0%.

As for `COc1ccc(CNC2=NS(=O)(=O)c3cc(F)ccc3N2)cc1` [Compound 20a, 7-Fluoro-3-((4-methoxybenzyl)amino)-4H-benzo[e][1,2,4]thiadiazine 1,1-dioxide], the inhibition at 100 µM was found to be 0%.

With `COc1ccc(CNC2=NS(=O)(=O)c3ccccc3N2)cc1` [Compound 20d, 3-((4-Methoxybenzyl)amino)-4H-benzo[e][1,2,4]thiadiazine 1,1-dioxide], the inhibition at 100 µM came to 0%.

For `O=S1(=O)N=C(NCc2ccccc2)Nc2ccc(F)cc21` [Compound 21a, 3-(Benzylamino)-7-fluoro-4H-benzo[e][1,2,4]thiadiazine 1,1-dioxide], the inhibition at 100 µM worked out at 0%.

As to `O=S1(=O)N=C(NCc2ccccc2)Nc2ccc(Br)cc21` [Compound 21c, 3-(Benzylamino)-7-bromo-4H-benzo[e][1,2,4]thiadiazine 1,1-dioxide], the inhibition at 100 µM amounted to 36 ± 9%.

Regarding `O=S1(=O)N=C(NCc2ccccc2)Nc2ccccc21` [Compound 21d, 3-(Benzylamino)-4H-benzo[e][1,2,4]thiadiazine 1,1-dioxide], the inhibition at 100 µM amounted to 0%.

As for `O=S1(=O)N=C(NC2CCCC2)Nc2ccc(F)cc21` [Compound 22a, 7-Fluoro-3-(cyclopentylamino)-4H-benzo[e][1,2,4]thiadiazine 1,1-dioxide], the inhibition at 100 µM was 1 ± 4.7%.

Take `O=S1(=O)N=C(NC2CCCC2)Nc2ccc(Br)cc21` [Compound 22c, 7-Bromo-3-(cyclopentylamino)-4H-benzo[e][1,2,4]thiadiazine 1,1-dioxide]: the inhibition at 100 µM was 25 ± 7.8%.

Take `O=S1(=O)N=C(NCCCc2ccccc2)Nc2ccccc21` [Compound 23d, 3-((3-Phenylpropyl)amino)-4H-benzo[e][1,2,4]thiadiazine 1,1-dioxide]: the inhibition at 100 µM stood at 0%.

`O=S1(=O)N=C(NCc2ccc(C(F)(F)F)cc2)Nc2ccc(F)cc21` [Compound 25a, 7-Fluoro-3-((4-(trifluoromethyl)benzyl)amino)-4H-benzo[e][1,2,4]thiadiazine 1,1-dioxide]: the inhibition at 100 µM is 6 ± 15.7%.

As for `COc1ccccc1CNC1=NS(=O)(=O)c2ccc(Cl)cc2N1` [Compound 26b, 6-Chloro-3-((2-methoxybenzyl)amino)-4H-benzo[e][1,2,4]thiadiazine 1,1-dioxide], the inhibition at 100 µM is 0%.

As for `Cc1ccc(CNC2=NS(=O)(=O)c3cc(F)ccc3N2)cc1` [Compound 27a, 7-Fluoro-3-((4-methylbenzyl)amino)-4H-benzo[e][1,2,4]thiadiazine 1,1-dioxide], the inhibition at 100 µM came to 23 ± 9.9%.

As for `Cc1ccc(CNC2=NS(=O)(=O)c3cc(Br)ccc3N2)cc1` [Compound 27c, 7-Bromo-3-((4-methylbenzyl)amino)-4H-benzo[e][1,2,4]thiadiazine 1,1-dioxide], the inhibition at 100 µM amounted to 29 ± 6.2%.

As for `COc1cccc(CNC2=NS(=O)(=O)c3cc(Br)ccc3N2)c1` [Compound 28c, 7-Bromo-3-((3-methoxybenzyl)amino)-4H-benzo[e][1,2,4]thiadiazine 1,1-dioxide], the inhibition at 100 µM amounted to 24 ± 5.2%.

On to `O=S1(=O)N=C(NCc2ccc(OC(F)(F)F)cc2)Nc2ccc(F)cc21` [Compound 30a, 7-Fluoro-3-((4-(trifluoromethoxy)benzyl)amino)-4H-benzo[e][1,2,4] thiadiazine 1,1-dioxide], for which the inhibition at 100 µM amounted to 2 ± 6.9%.

Consider `Nc1ccc(CNC2=NS(=O)(=O)c3cc(Br)ccc3N2)cc1` [Compound 31c, 3-((4-Aminobenzyl)amino)-7-bromo-4H-benzo[e][1,2,4]thiadiazine 1,1-dioxide], for which the inhibition at 100 µM turned out to be 9 ± 6%.

Turning to `C=CCNC1=NS(=O)(=O)c2ccc(Cl)cc2N1` [Compound 32b, 3-(Allylamino)-6-chloro-4H-benzo[e][1,2,4]thiadiazine 1,1-dioxide], the inhibition at 100 µM was determined as 0%.

As to `C=CCNC1=NS(=O)(=O)c2ccccc2N1` [Compound 32d, 3-(Allylamino)-4H-benzo[e][1,2,4]thiadiazine 1,1-dioxide], the inhibition at 100 µM is 2 ± 12.3%.

As to `COc1ccc(CCNC2=NS(=O)(=O)c3cc(Br)ccc3N2)cc1` [Compound 34c, 7-Bromo-3-((4-methoxyphenethyl)amino)-4H-benzo[e][1,2,4]thiadiazine 1,1-dioxide], the inhibition at 100 µM was 17 ± 3.3%.
